Measurements from patent US4891358A, “ANE derivatives with novel bridging” (Bio-Mega Inc., priority 1987, dated 1990).
Numbered stars: 1 amine (or outer) side, 2 acyl side, 3 side chain; on linkers, the order of the positions; unused ones are H or OH. Bridge positions count the residues as written; N and C are the ends. Square brackets hold non-standard residues; d marks the D form. Peptide text beside a SMILES is read from it. Pen = CC(C)(S)[C@H](N)C(=O)O; X1 = O=C(CCC[*:2])[*:1]

Tested on: conscious normotensive rat
Assay: Diuretic assay in the conscious normotensive rat
Assay type: in vivo
Details: for URINE VOLUME: 0.5 μg/kg/min infusion via femoral vein, ratio of treated over control, volume in 10 minute sample (average of three consecutive samples); for ELECTROLYTE EXCRETION K^+ / ELECTROLYTE EXCRETION Na^+: 0.5 μg/kg/min infusion, treated minus controls, average of three samples
Description: More explicitly, normotensive male rats (300-325 g) were anesthetized with halothane. Following an application of lidocaine 2% solution, the femoral artery was cannulated for measurements of blood pressure and heart rate, and the femoral vein was cannulated for the administration of the test compounds. The bladder was also cannulated to measure urine flow. After surgery was completed, the animals were placed in restraining cages and allowed to recover from anesthesia for a period of one hour. A Ringer's solution infusion was started at a rate of 1.2 ml per hour. Three control urine samples were collected at 10 minute intervals. The test compound was then infused at a rate varying from 0.5 to 3 μg/kg/min over 30 minutes. Three test samples of urine were collected at 10 minute intervals during the compound infusion. After the test compound had been infused for 30 minutes and 3 more urine samples were collected. The volume of each urine sample was determined and the electrolyte concentration was measured using a biomedical electrolyte analyser. The animals served as their own controls. The systolic and diastolic blood pressures and the heart rate were determined during each urine collection period.

Compound	URINE VOLUME	ELECTROLYTE EXCRETION K^+	ELECTROLYTE EXCRETION Na^+
CC[C@H](C)[C@@H]1NC(=O)[C@H](CCCNC(=N)N)NC(=O)[C@H](CC(=O)O)NC(=O)[C@H]([C@@H](C)CC)NC(=O)[C@H](CCCNC(=N)N)NC(=O)CNC(=O)CNC(=O)[C@H](Cc2ccccc2)NC(=O)CCCSC(C)(C)[C@@H](C(=O)N[C@@H](CC(N)=O)C(=O)N[C@@H](CO)C(=O)N[C@@H](Cc2ccccc2)C(=O)N[C@@H](CCCNC(=N)N)C(=O)N[C@@H](Cc2ccc(O)cc2)C(=O)O)NC(=O)CNC(=O)[C@H](CC(C)C)NC(=O)CNC(=O)[C@H](CO)NC(=O)[C@H](CCC(N)=O)NC(=O)[C@H](C)NC(=O)CNC1=O [rat[(CH2 CH2 CH2 CO)^105, Pen^121]-ANF(105-126)] (FGGRIDRIGAQSGLG[Pen]NSFRY-OH; linker N-16 via X1)	3.0	24.8	17.9
rat [(CH2 -CH2 CH2 CO)^105]ANF-(105-126) [rat[(CH2 CH2 CH2 CO)^105]-ANF(105-126)]	2.8	10.2	34.0
